Test results: patent US9708337B2, “Aryl amide-based kinase inhibitors” (Bristol-Myers Squibb Company, priority 2013, dated 2017)
pIC50: −log10 of the molar value.

biological target: AAK1 (GST-Xa-hAAK1) (Homo sapiens (Human), UniProt Q2M2I8); assay: AAK1 Kinase Assay; type: biochemical; settings: not given
Procedure: The assays were performed in U-bottom 384-well plates. […] The reactions were initiated by the combination of bacterially expressed, GST-Xa-hAAK1 with substrates and test compounds. The reactions were incubated at room temperature for 3 hours and terminated by adding 60 μl of 35 mM EDTA buffer to each sample. […] Compounds were dissolved at 10 mM in dimethylsulfoxide (DMSO) and evaluated at eleven concentrations. IC50 values were derived by non-linear regression analysis.

Chain of AAK1 (GST-Xa-hAAK1) (Q2M2I8 whole entry): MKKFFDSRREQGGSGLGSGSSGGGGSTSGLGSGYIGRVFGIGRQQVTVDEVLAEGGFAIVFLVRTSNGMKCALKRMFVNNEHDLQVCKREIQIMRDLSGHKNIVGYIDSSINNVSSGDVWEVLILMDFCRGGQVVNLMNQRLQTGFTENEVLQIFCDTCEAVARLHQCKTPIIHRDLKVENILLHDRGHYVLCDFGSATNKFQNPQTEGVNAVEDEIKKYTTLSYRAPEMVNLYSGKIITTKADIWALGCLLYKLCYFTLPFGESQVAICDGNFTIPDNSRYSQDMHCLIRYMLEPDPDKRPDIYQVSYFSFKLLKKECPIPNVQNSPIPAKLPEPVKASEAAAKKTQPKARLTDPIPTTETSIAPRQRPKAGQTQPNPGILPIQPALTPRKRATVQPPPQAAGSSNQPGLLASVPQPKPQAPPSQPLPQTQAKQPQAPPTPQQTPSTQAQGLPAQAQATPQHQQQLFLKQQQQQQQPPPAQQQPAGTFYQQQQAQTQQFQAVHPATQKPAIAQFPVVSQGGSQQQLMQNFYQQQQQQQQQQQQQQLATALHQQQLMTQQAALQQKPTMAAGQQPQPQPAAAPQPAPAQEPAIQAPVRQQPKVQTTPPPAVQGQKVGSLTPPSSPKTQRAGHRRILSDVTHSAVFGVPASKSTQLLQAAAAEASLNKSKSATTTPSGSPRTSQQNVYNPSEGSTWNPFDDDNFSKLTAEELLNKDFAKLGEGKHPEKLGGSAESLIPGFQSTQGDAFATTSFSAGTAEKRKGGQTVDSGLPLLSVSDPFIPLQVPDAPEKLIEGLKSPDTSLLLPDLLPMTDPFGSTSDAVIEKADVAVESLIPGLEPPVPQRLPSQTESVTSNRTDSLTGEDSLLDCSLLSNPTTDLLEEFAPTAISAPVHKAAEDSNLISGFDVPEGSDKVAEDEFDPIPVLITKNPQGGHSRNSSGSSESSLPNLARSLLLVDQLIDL

SMILES	pIC50
O=C(Nc1ccc2c(c1)OCc1cnccc1-2)NC1CCCCC1 [Example 13, 1-(5H-chromeno[3,4-c]pyridin-8-yl)-3-cyclohexylurea]	5.92 to 7.00
CC(C)(C)COC(=O)Nc1ccc2c(c1)OCc1cnccc1-2 [Example 12, neopentyl 5H-chromeno[3,4-c]pyridin-8-ylcarbamate]	5.92 to 7.00
NS(=O)(=O)CCCC(=O)Nc1ccc2c(c1)OCc1cnccc1-2 [Example 21, N-(5H-chromeno[3,4-c]pyridin-8-yl)-4-sulfamoylbutanamide]	5.92 to 7.00
CCC(=O)Nc1ccc2c(c1)OCc1cnccc1-2 [Example 28, N-(5H-chromeno[3,4-c]pyridin-8-yl)propionamide]	5.92 to 7.00
CCCC(=O)Nc1ccc2c(c1)OCc1cnccc1-2 [Example 31, N-(5H-chromeno[3,4-c]pyridin-8-yl)butyramide]	7.00 to 8.00
O=C(CCO)Nc1ccc2c(c1)OCc1cnccc1-2 [Example 19, N-(5H-chromeno[3,4-c]pyridin-8-yl)-3-hydroxypropanamide]	5.92 to 7.00
N[C@H](CNc1ccc2c(c1)OCc1cnccc1-2)c1ccccc1 [Example 37, (S)—N^1-(5H-chromeno[3,4-c]pyridin-8-yl)-2-phenylethane-1,2-diamine]	7.00 to 8.00
CC(C)CC(=O)Nc1ccc2c(c1)OCc1cnccc1-2 [Example 27, N-(5H-chromeno[3,4-c]pyridin-8-yl)-3-methylbutanamide]	7.00 to 8.00
CCCCC(=O)Nc1cc2c(cc1Br)-c1ccncc1CO2 [Example 34, N-(9-bromo-5H-chromeno[3,4-c]pyridin-8-yl)pentanamide]	7.00 to 8.00
COC(=O)CCC(=O)Nc1ccc2c(c1)OCc1cnccc1-2 [Example 29, methyl 4-((5H-chromeno[3,4-c]pyridin-8-yl)amino)-4-oxobutanoate]	5.92 to 7.00
CC(C)C[C@@H](N)C(=O)Nc1ccc2c(c1)OC(C)(C)c1cnccc1-2 [Example 8, (R)-2-amino-N-(5,5-dimethyl-5H-chromeno[3,4-c]pyridin-8-yl)-4-methylpentanamide]	7.00 to 8.00
CC(C)C(=O)Nc1ccc2c(c1)OCc1cnccc1-2 [Example 24, N-(5H-chromeno[3,4-c]pyridin-8-yl)isobutyramide]	5.92 to 7.00
CC(C)C[C@H](N)C(=O)Nc1ccc2c(c1)OCc1cnccc1-2 [Example 2, (S)-2-amino-N-(5H-chromeno[3,4-c]pyridin-8-yl)-4-methylpentanamide]	8.00 to 9.00
COCCC(=O)Nc1ccc2c(c1)OCc1cnccc1-2 [Example 18, N-(5H-chromeno[3,4-c]pyridin-8-yl)-3-methoxypropanamide]	5.92 to 7.00
CC(C)(C)C(=O)Nc1ccc2c(c1)OCc1cnccc1-2 [Example 32, N-(5H-chromeno[3,4-c]pyridin-8-yl)pivalamide]	5.92 to 7.00
N#CC1(C(=O)Nc2ccc3c(c2)OCc2cnccc2-3)CC1 [Example 20, N-(5H-chromeno[3,4-c]pyridin-8-yl)-1-cyanocyclopropanecarboxamide]	5.92 to 7.00
N#CCC(=O)Nc1ccc2c(c1)OCc1cnccc1-2 [Example 25, N-(5H-chromeno[3,4-c]pyridin-8-yl)-2-cyanoacetamide]	5.92 to 7.00
CC(C)(C)CC(=O)Nc1ccc2c(c1)OCc1cnccc1-2 [Example 26, N-(5H-chromeno[3,4-c]pyridin-8-yl)-3,3-dimethylbutanamide]	7.00 to 8.00
C#CCCC(=O)Nc1ccc2c(c1)OCc1cnccc1-2 [Example 14, N-(5H-chromeno[3,4-c]pyridin-8-yl)pent-4-ynamide]	7.00 to 8.00
CC(=O)Nc1ccc2c(c1)OCc1cnccc1-2 [Example 17, N-(5H-chromeno[3,4-c]pyridin-8-yl)acetamide]	5.92 to 7.00
O=C(Nc1ccc2c(c1)OCc1cnccc1-2)C1CCCCC1 [Example 23, N-(5H-chromeno[3,4-c]pyridin-8-yl)cyclohexanecarboxamide]	5.92 to 7.00
CC(C)C[C@@H](N)C(=O)Nc1ccc2c(c1)OCc1cnccc1-2 [Example 1, (R)-2-amino-N-(5H-chromeno[3,4-c]pyridin-8-yl)-4-methylpentanamide]	8.00 to 9.00

same assay, conditions: Table 1a, listed as IC50 ranges; ATP 22 μM; read-out: AAK1 IC50

pIC50	SMILES
7.00 to 8.00	CC(=O)Nc1cc2c(cn1)COc1cc(NC(=O)[C@@H](N)CC(C)C)ccc1-2 [Example 35, (S)—N-(2-acetamido-5H-chromeno[3,4-c]pyridin-8-yl)-2-amino-4-methylpentanamide]
5.92 to 7.00	CN(C)CC(=O)Nc1ccc2c(c1)OCc1cnccc1-2 [Example 33, N-(5H-chromeno[3,4-c]pyridin-8-yl)-2-(dimethylamino)acetamide]
5.92 to 7.00	CC(C)C[C@H](N)C(=O)Nc1ccc2c(c1)oc(=O)c1cnccc12 [Example 11, (S)-2-amino-4-methyl-N-(5-oxo-5H-chromeno[3,4-c]pyridin-8-yl)pentanamide]
5.92 to 7.00	N#CCCC(=O)Nc1ccc2c(c1)OCc1cnccc1-2 [Example 16, N-(5H-chromeno[3,4-c]pyridin-8-yl)-3-cyanopropanamide]
7.00 to 8.00	CC(C)CCC(=O)Nc1ccc2c(c1)OCc1cnccc1-2 [Example 30, N-(5H-chromeno[3,4-c]pyridin-8-yl)-4-methylpentanamide]

same assay, conditions: Table 1a, numeric values; ATP 22 μM; read-out: AAK1 IC50

SMILES	pIC50
O=C(CCN1CCCC1=O)Nc1ccc2c(c1)OCc1cnccc1-2 [Example 22, N-(5H-chromeno[3,4-c]pyridin-8-yl)-3-(2-oxopyrrolidin-1-yl)propanamide]	5.92
CC(C)C[C@H](N)C(=O)Nc1ccc2c(c1)OC(C)(C)c1cnccc1-2 [Example 9, (S)-2-amino-N-(5,5-dimethyl-5H-chromeno[3,4-c]pyridin-8-yl)-4-methylpentanamide]	6.89
CC(C)C1CCCNC1C(=O)Nc1ccc2c(c1)OCc1cnccc1-2 (centres unmarked) [Example 10, N-(5H-chromeno[3,4-c]pyridin-8-yl)-3-isopropylpiperidine-2-carboxamide]	8.89
N[C@H](C(=O)Nc1ccc2c(c1)OCc1cnccc1-2)c1ccccc1 [Example 36, (S)-2-amino-N-(5H-chromeno[3,4-c]pyridin-8-yl)-2-phenylacetamide]	8.05
CCCCC(=O)Nc1ccc2c(c1)OCc1cnccc1-2 [Example 15, N-(5H-chromeno[3,4-c]pyridin-8-yl)pentanamide]	7.59
